Key:
Diplodia maydis = assay: Fungal growth inhibition assay, Diplodia maydis; type: cell-based; conditions: 48 hours, read-out: D. maydis % growth inhibition at 48 hours
Protocol: (§1) Spores were isolated from previously sub-cultured plates of Botrytis cinerea, Phytophthora capsici, Fusarium moniliforme, Fusarium viguliforme, Collectotrichum graminicola, and Diplodia maydis. All spores were filtered and collected in a sterile glass bowl to isolate the spores from the mycelia. The isolation and sub-culture plate condition for each pathogen is described below.
Spore isolation for D. maydis: A 3-4 week old PDA (pre-mix) plate was removed from 26° C. incubator with a light/dark 12 hour cycle and the mycelia were treated with 6-7 ml of sterile distilled water, scraped into a sterile petri dish, and smashed to open the pycnidia. The spores were then collected in a sterile filter bowl containing a fluted piece of filter paper and poured into a conical tube.
(§2) After spore isolation, pathogen spores were counted on a hemocytometer to calculate the spores/ml. In 17% V8 liquid media containing 3 g/L CaCO3, isolated spores were diluted to individual concentrations based on the growth curves at 48 hours of each pathogen. The spore concentrations for each pathogen were as follows: B. cinerea—10,000 sp/ml; P. capsici—300 sp/ml; F. monliforme—500 sp/ml; F. virguliforme—500 sp/ml; C. graminicola—3,000 sp/ml; and D. maydis—3,000 sp/ml.
(§3) Chemistry stocks were dissolved in DMSO at 2.5 mg/ml. Chemistry was diluted in a 96-well stock plate in five-fold dilutions to obtain a final concentration of 50, 10, and 2 ppm in vitro. The final concentration of the positive control after the five-fold dilutions was as follows: soraphen—0.5, 0.1, and 0.02 ppm. Negative controls on each plate included 2% DMSO, water containing spores and media, and a blank for background subtraction.
(§4) In a 96-well plate the spore solution, chemistries, and controls were combined to make the final solution concentrations mentioned above. Upon addition of the chemistry, an OD600 reading was done to assess chemical precipitation. The 96-well plates were incubated in plastic tubs containing wet paper towels under the following conditions, 25° C. in the dark for P. capsici and B. cinerea or 26° C. with light/dark cycle for C. graminicola, D. maydis, F. virguliforme, F. monliforme. Plate readings were repeated at 24 and 48 hrs. Visual ratings were performed at 24 and 48 hrs to check for precipitation and confirm efficacy. Visual and OD600 ratings of the chemistry at 48 hours were compared to the 2% DMSO control to determine the percent of pathogen growth inhibition.

[1] = tested on: Collectotrichum graminicola; assay: Fungal growth inhibition assay, Collectotrichum graminicola; type: cell-based; conditions: Colletotrichum graminicola, 48 hours, read-out: C. graminicola % growth inhibition at 48 hours
Protocol: as §1
Spore isolation for C. graminicola: A 1-2 week old oatmeal agar (pre-mix) plate was removed from 26° C. incubator with a light/dark 12 hour cycle and the mycelia were treated with 10-15 ml of filter sterilized distilled water. The mycelia were scraped to re-suspend the spores. The spores were then collected in a sterile filter bowl containing a piece of sterile cheesecloth and poured into a conical tube.
as §2, §3, §4

[2] = biological target: Ustilago maydis acetyl CoA carboxylase (ACCase) (Mycosarcoma maydis (Ustilago maydis), UniProt A0A0D1DYD5); assay: ACCase enzymatic assay (coupled PK/LDH, NADH OD340); type: biochemical; conditions: Table 1A; values marked a are a result of two or more experiments; read-out: ACCase Inhibitory Activity IC50
Protocol: Ustilago maydis acetyl CoA carboxylase (ACCase) was cloned, expressed, and purified as described (Weatherly et al, Biochem. J., 2004) and the test compounds were tested in a 96-well plate format. Primary in vitro screening consisted of obtaining dose response data at 100, 33, 10, and 1 μM inhibitor. Actives in the primary screen were re-tested to establish IC50 values.
Direct detection of the conversion of acetyl CoA to malonyl CoA by ACCase was not feasible, but during this process ATP is converted to ADP which allowed for detection through a standard reaction coupling with ADP recycling to the oxidation of NADH. Thus, ACCase activity was measured via kinetic OD340 measurements of the conversion of NADH to NAD in a coupled reaction involving the conversion of phosphoenolpyruvate (PEP) to lactate.
The complete 200 ul reaction mixture contained 52.5 mM HEPES (pH8), 2.625 mM MgCl2, 1 mM ATP, 0.525 mM DTT, 11 mM NaHCO3, 1% DMSO with or without inhibitor, 1× pyruvate kinase/lactate dehydrogenase (PK/LDH), 0.3 mM NADH, 0.5 mM PEP, and 5 μg ACCase. The reactions were incubated at 30° C. for 10 minutes and then initiated by the addition of 0.33 mM acetyl CoA. The initiated reactions were read immediately via plate reader at OD340 and kinetic readings were acquired every 20 s for 15 minutes while keeping the temperature at 30° C.
A slope of the kinetic curve was determined by using the 2 to 7 minute data which was then calculated as percent inhibition relative to the no inhibitor control.
The primary screens were conducted in duplicate and the IC50's conducted in triplicate. Averages were reported along with standard deviation calculation to generate error bars.
Each plate contained its own controls and consisted of a DMSO only control, 5-fold titration series of soraphen from 2 μM to 3.2 nM, and an ADP coupled reaction control.

Phytophthora capsici = assay: Fungal growth inhibition assay, Phytophthora capsici; type: cell-based; conditions: 48 hours, read-out: P. capsici % growth inhibition at 48 hours
Source text: as §1
Spore isolation for P. capsici: Three to five days prior to the assay a 2-3 week old V8 (17%)+CaCO3 (3 g/L)+20 g agar plate was removed from a dark 25° C. incubator and cut up into small chunks. One plate was separated into two deep well plates and rinsed with sterile distilled water three times. The cut up pieces were incubated under light in a sterile filter hood with 25 ml of sterile distilled water. On the day of the assay the water was removed and 5-7 ml of fresh sterile distilled water was added. One plate was incubated at 4° C. for 45-60 minutes and then placed at room temperature for about 45-60 minutes. The spores were collected in a sterile filter bowl containing a fluted piece of filter paper. The spores were vortexed in a conical tube for 30-60 seconds to remove the flagella of the zoospores after isolation.
as §2, §3, §4

Chain of Ustilago maydis acetyl CoA carboxylase (ACCase) (A0A0D1DYD5 1-2185): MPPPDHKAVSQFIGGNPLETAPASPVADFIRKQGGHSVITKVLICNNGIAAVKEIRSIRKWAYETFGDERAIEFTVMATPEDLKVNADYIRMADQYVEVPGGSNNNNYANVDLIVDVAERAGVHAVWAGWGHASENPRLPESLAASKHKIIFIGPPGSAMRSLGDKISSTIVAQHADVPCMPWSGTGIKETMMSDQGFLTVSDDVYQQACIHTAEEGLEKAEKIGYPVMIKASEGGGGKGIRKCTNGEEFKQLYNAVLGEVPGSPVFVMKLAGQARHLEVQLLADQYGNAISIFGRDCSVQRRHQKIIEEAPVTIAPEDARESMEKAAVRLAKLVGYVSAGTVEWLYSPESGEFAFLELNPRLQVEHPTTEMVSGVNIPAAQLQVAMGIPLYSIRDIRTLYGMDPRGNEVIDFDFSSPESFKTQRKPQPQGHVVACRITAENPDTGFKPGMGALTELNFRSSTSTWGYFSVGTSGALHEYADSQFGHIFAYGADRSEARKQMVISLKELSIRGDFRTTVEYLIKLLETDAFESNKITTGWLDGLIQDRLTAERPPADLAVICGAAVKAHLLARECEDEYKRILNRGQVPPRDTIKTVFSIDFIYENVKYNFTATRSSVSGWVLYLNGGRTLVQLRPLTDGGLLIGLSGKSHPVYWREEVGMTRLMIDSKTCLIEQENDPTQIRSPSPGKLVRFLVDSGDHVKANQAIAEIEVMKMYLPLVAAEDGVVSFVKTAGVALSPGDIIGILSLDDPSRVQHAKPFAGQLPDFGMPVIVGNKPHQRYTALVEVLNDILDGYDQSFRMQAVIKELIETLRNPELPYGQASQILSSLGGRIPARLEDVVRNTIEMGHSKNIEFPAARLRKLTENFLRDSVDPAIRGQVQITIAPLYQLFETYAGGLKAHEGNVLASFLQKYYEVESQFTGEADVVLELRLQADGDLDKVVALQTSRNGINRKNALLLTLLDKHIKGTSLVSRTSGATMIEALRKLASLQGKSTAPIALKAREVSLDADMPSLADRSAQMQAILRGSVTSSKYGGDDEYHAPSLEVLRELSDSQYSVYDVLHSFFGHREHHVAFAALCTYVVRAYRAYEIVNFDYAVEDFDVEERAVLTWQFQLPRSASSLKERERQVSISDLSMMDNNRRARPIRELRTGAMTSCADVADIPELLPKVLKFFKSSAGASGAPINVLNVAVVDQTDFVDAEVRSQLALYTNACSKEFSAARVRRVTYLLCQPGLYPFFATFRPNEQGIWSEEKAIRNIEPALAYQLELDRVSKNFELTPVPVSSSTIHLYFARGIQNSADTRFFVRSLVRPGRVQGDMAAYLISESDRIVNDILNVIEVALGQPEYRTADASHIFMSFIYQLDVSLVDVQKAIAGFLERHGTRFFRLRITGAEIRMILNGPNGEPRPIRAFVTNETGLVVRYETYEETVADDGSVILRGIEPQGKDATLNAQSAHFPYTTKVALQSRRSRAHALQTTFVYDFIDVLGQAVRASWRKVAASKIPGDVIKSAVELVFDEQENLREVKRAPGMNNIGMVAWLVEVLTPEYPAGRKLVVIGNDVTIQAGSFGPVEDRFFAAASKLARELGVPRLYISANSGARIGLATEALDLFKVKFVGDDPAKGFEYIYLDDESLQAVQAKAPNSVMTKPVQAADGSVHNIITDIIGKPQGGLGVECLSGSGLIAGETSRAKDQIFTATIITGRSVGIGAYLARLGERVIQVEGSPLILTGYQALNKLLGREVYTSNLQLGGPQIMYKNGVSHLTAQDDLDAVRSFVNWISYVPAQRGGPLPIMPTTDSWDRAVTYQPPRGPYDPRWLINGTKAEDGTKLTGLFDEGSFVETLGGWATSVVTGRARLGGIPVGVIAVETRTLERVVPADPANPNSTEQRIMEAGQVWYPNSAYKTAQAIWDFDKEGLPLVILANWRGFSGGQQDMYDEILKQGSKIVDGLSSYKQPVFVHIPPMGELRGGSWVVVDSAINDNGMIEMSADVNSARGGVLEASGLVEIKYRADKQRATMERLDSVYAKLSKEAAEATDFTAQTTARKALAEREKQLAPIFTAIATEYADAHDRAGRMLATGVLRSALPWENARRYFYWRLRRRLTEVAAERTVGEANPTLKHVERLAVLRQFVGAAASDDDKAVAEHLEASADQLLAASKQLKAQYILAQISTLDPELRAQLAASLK

Row | Structure (SMILES) | inhibition at 2 ppm (Diplodia maydis) [%] | inhibition at 10 ppm (Diplodia maydis) [%] | inhibition at 50 ppm (Diplodia maydis) [%] | inhibition at 2 ppm [1] [%] | inhibition at 10 ppm [1] [%] | inhibition at 50 ppm [1] [%] | IC50 [2] [nM] | inhibition at 2 ppm (Phytophthora capsici) [%] | inhibition at 10 ppm (Phytophthora capsici) [%] | inhibition at 50 ppm (Phytophthora capsici) [%]
1 | COc1ccc(-c2cc(-c3cccs3)nc(SC(C(=O)O)c3ccccc3)c2C#N)cc1 (stereo not shown) [Formula Ia-v, 2-((3-cyano-4-(4-methoxyphenyl)-6-(thiophen-2-yl)pyridin-2-yl)thio)-2-phenylacetic acid] | 0 | 61 | 52 | 0 | 32 | 79 | 119 | – | – | –
2 | COc1ccc(-c2cc(C(F)(F)F)c(C#N)c(SC(C(=O)O)c3ccccc3)n2)cc1OC (stereo not shown) [Formula Ia-ix, 2-((3-cyano-6-(3,4-dimethoxyphenyl)-4-(trifluoromethyl)pyridin-2-yl)thio)-2-phenylacetic acid] | 32 | 37 | 70 | 5 | 17 | 72 | 1600 | 10 | 39 | 34
3 | N#Cc1c(-c2ccccc2)cc(-c2cccs2)nc1SC(C(=O)O)c1ccccc1 (stereo not shown) [Formula Ia-iv, 2-((3-cyano-4-phenyl-6-(thiophen-2-yl)pyridin-2-yl)thio)-2-phenylacetic acid] | – | – | – | 5 | 41 | 76 | 492 | 0 | 11 | 90
4 | N#Cc1c(SC(C(=O)O)c2ccccc2)nc(-c2cccs2)c2c1CCCC2 (stereo not shown) [Formula Ia-vii, 2-((4-cyano-1-(thiophen-2-yl)-5,6,7,8-tetrahydroisoquinolin-3-yl)thio)-2-phenylacetic acid] | 11 | 46 | 64 | 11 | 19 | 71 | 3800 | 0 | 9 | 100
5 | N#Cc1c(C(F)(F)F)cc(-c2ccco2)nc1SC(C(=O)O)c1ccccc1 (stereo not shown) [Formula Ia-xi, 2-((3-cyano-6-(furan-2-yl)-4-(trifluoromethyl)pyridin-2-yl)thio)-2-phenylacetic acid] | 38 | 54 | 82 | – | – | – | 5430 | – | – | –
6 | N#Cc1c(SC(C(=O)O)c2ccccc2)nc2c(c1-c1cccs1)CCCC2 (stereo not shown) [Formula Ia-xiii, 2-((3-cyano-4-(thiophen-2-yl)-5,6,7,8-tetrahydroquinolin-2-yl)thio)-2-phenylacetic acid] | 20 | 13 | 40 | – | – | – | 274 | – | – | –
7 | N#Cc1c(-c2ccc(Cl)cc2)cc(-c2cccs2)nc1SC(C(=O)O)c1ccccc1 (stereo not shown) [Formula Ia-i, 2-((4-(4-chlorophenyl)-3-cyano-6-(thiophen-2-yl)pyridin-2-yl)thio)-2-phenylacetic acid] | 3 | 57 | 65 | 28 | 72 | 92 | 370 | – | – | –
